Reference: patent US9783590B2 (priority 2003, dated 2017)

Key:
human subjects = experiment: PTC phenotype determination (blinded sorting taste threshold test); type: in vivo
Excerpt: Subjects began tasting a solution of 1 micromolar PTC (solution #14) and proceeded in 2-fold increasing concentration increments (solutions 13, 12, 11 . . . ) until a bitter taste was perceived. Subjects then performed a blinded sorting test containing 3 cups of PTC solution and 3 cups of water. Raw taste threshold was the most dilute solution at which the subject could correctly sort all 6 cups. We also included a quinine threshold measurement according to Blakeslee & Salmon (Proc. Natl. Acad. Sci. USA 21, 84, 1935) to identify and exclude individuals with general deficits in bitter taste (aguesia). For dichotomous assignment of phenotype, we considered individuals unable to taste PTC before solution #6, i.e. at concentrations less than 267 micromolar PTC, to be non-tasters. Although the classic method includes corrections for age and sex, analysis of our raw PTC taste threshold data indicated only a modest sex effect, with females more sensitive than males (p=0.00324, proportion of variance explained=5.1%). No effect of age on PTC scores was observed. As a result, raw PTC threshold scores were used for all analyses.
The Utah C.E.P.H. families were enrolled in conjunction with the Utah Genetic Reference Project under University of Utah IRB approved protocol #6090-96, and consisted of individuals of Northern European ancestry. Subjects in the NIH replication sample were enrolled under NIH/NINDS IRB approved protocol # DC-01-230, and were of European, Asian, African American, and Native American ancestry. Human Diversity Panel DNAs (sub-Saharan African, Asian, and Southwest Native American) and primate DNAs were obtained from the Coriell Cell Repository, Camden, N.J. The Utah sample consists of 27 families comprising 269 individuals; both haplotype and phenotype information was available for 180 of these individuals. The NIH replication sample of consisted of 85 unrelated individuals of known haplotype and phenotype; 51 were European, 5 Pakistani, 23 East Asian, and 6 African-American. One African-American is not considered in the analysis due to a rare AAV/AAI diplotype. H is raw PTC score is 7.

T2R16 = molecular target: T1, T2R16 (Homo sapiens, UniProt Q9NYV7); conditions: in vitro cell based assays, Bufe et al. 2002; cited from earlier work
T1 sequence (Q9NYV7 1-291): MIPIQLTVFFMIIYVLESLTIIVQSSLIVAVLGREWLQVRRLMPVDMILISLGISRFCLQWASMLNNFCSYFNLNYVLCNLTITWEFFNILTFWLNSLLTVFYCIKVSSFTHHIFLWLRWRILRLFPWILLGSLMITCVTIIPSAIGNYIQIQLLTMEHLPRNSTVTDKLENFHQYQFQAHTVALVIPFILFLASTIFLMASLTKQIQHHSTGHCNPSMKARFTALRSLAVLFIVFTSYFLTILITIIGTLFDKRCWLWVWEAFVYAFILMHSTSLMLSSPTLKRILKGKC

NC(=S)Nc1ccccc1 [PTC, phenylthiocarbamide]
mean PTC score (human subjects; AVI homozygotes, NIH sample): 1.86
mean PTC score (human subjects; AVI homozygotes, Utah sample): 4.31
mean PTC score (human subjects; PAV heterozygotes, NIH sample): 8.81
mean PTC score (human subjects; PAV heterozygotes, Utah sample): 9.65
mean PTC score (human subjects; PAV homozygotes, NIH sample): 10.00
mean PTC score (human subjects; PAV homozygotes, Utah sample, score = number of most dilute solution correctly sorted (#14 = 1 micromolar, 2-fold steps)): 10.69
raw PTC score (human subjects; one subject, AAV/AAI diplotype, NIH sample): 7

OCc1ccccc1O[C@@H]1O[C@H](CO)[C@@H](O)[C@H](O)[C@H]1O [salicin]
receptor response to tastant (T2R16): responds
